Experimental findings from US20110046070A1, “GENE EXPRESSION INHIBITOR SELECTIVE FOR MATRIX METALLOPROTEINASE-9 GENE” (priority 2008, published 2011) are described below.

Molecules are shown by their SMILES.

Test [1] deals with MMP-9 protein in MDA-MB-231 cells. The test can be described thus: Western blotting analysis (protein assay). It is filed as cell-based, human. Conditions: MDA-MB-231, 48 hours, various concentrations, vs DMSO control. How it is done:
MDA-MB-231 cells were treated with the polyamide of the present invention at various concentrations. 48 hours after the treatment, the cells were collected, and the total cell lysate was prepared into an extraction buffer containing a protease inhibition cocktail (Boehringer Ingelheim GmbH, Germany) containing 50 mM Tris-HCl, 150 mM NaCl, 10 mM EDTA and 1% Triton-X. Homogenates were centrifuged at 15,000×g at 4° C. for 10 minutes. The supernatants were collected, and protein concentrations were measured. The protein sample (10 μg) was electrophoresed on NuPAGE+™ 10% Bis-Tris gel (Invitrogen Life Technologies, Corp.) and transferred to a PVDF (polyvinylidene difluoride) membrane (Millipore, Bedford, Mass.). The PVDF membrane was incubated overnight with rabbit anti-MMP-9 polyclonal antibodies (Calbiochem (registered trademark) Biosciences, Inc. La Jolla, Calif.) (1:500) obtained from Calbiochem (registered trademark). The PVDF membrane was washed three times with a Tris buffer containing 0.2% Tween 20. The immunoconjugated proteins were identified through reaction with peroxidase-conjugated goat antibodies against rabbit IgG (MP Biomedicals, Inc.) and subsequently amplified by chemiluminescence detection (Amersham, Piscataway, N.J.).
A general note: Immunoblotting shows a protein as a band on a membrane.

The test system of test [2] is human breast cancer MDA-MB-231 cells. The test can be described thus: Wound-healing migration assay, MDA-MB-231. Format: cell-based. Conditions: 48 hours after the damage, various concentrations, vs DMSO. How it is done:
A human breast cancer MDA-MB-231 cell strain was used. The cells were cultured at 37° C. in a humid environment containing 5% CO^2 in an RPMI1640 medium (Sigma-Aldrich Corp., St. Louis, Mo., USA) supplemented with 100 μg/ml streptomycin, 100 units/ml penicillin and 10% fetal bovine serum (FBS) (Sigma-Aldrich Corp.). Human uterine cervix cancer HeLa cells were cultured in a Dulbecco's modified Eagle medium (DMEM, Invitrogen Life Technologies, Corp., Carlsbad, Calif.) containing 10% FBS and 2 mM L-glutamine.
To assay cellular migration in the process of wound healing, 3×10^5 cells were inoculated to each well of an 8-well chamber slide, and the cell layer was damaged using a plastic micropipette when the cells reached confluence. The medium and debris were removed by suction, and 100 μl of a fresh medium containing various polyamides was replaced therefor. 48 hours after the damage, the cells were fixed with Diff-Quik solution (SYSMEX INTERNATIONAL REAGENTS CO., LTD., Kobe, Japan), then stained, and photographed using a phase-contrast microscope.

For test [3], the system named is MDA-MB-231 cells. The test can be described thus: Growth inhibition assay, MDA-MB-231. Format: cell-based, human. Conditions: MDA-MB-231, 0 μM to 30 μM, 72 hours, WST-8. How it is done: Cell growth inhibition test was conducted using MDA-MB-231 and HeLa cells. The HeLa cells were inoculated at a concentration of 2500 cells/well to a 96-well microtiter plate and incubated for 24 hours in 100 μl of Dulbecco's modified Eagle medium (DMEM) containing 10% fetal bovine serum (Invitrogen). Then, after medium replacement, the cells were cultured for 72 hours in a medium supplemented with 10% fetal bovine serum containing 0 μM to 30 μM (0 μM, 0.3 μM, 1 μM, 3 μM, 10 μM and 30 μM) polyamide HMMP9NFκβ, and 10 μl of live cell counting reagent SF (Nacalai Tesque, Inc.) was added thereto, followed by 2-hour color reaction. Absorbance was measured at 450 nm using an ARVO microtiter plate reader. This experiment was conducted by modified MTT assay (WST-8 ™: Nacalai Tesque, Inc.) using water-soluble formazan.
On the technique in general: Tetrazolium dyes change colour on reduction, which living cells bring about.

For test [4], the system named is MMP-9 mRNA in MDA-MB-231 cells. The test can be described thus: Real-time RT-PCR assay (mRNA expression assay). Conditions: 48 hours, MDA-MB-231, vs DMSO control, normalized to GAPDH. It is filed as cell-based, human. How it is done: MDA-MB-231 cells were treated with each polyamide of the present invention at various concentrations. 48 hours after the treatment, cell fractions were subjected to RNA separation using a TRIzol reagent (Invitrogen Life Technologies, Corp.) according to the manufacturer's manual. RNA was treated with DNase prior to cDNA synthesis. Complementary DNA strands were synthesized by reverse transcription using SuperScript™ First-Strand kit (Invitrogen Life Technologies, Corp.). In real-time RT-PCR (Thermal cycler Dice Real Time system TP800, Takara Bio Inc., Japan), SYBR Premix Ex Taq Kit (Takara Bio Inc.) was used. Primers for HMMP9AP1 (forward, 5′-[…]-3′, SEQ ID NO: 12; reverse 5′-[…]-3′, SEQ ID NO: 13; 236 bp) and internal standard human endogenous glyceraldehyde-3-phosphate dehydrogenase (GADPH; forward, 5′-[…]-3′, SEQ ID NO: 14; reverse, 5′-TGGTGAAGACGCCAGTGGA-3′, SEQ ID NO: 15; 138 bp) were used. Moreover, primers for HMMP9NFKκβ (forward, 5′-[…]-3′, SEQ ID NO: 16; reverse, 5′-[…]-3′, SEQ ID NO: 17; 236 bp) and internal standard human endogenous glyceraldehyde-3-phosphate dehydrogenase (GADPH; forward, 5′-[…]-3′, SEQ ID NO: 18; reverse, 5′-TGGTGAAGACGCCAGTGGA-3′, SEQ ID NO: 19; 138 bp) were used. 25 μl of two-step RT-PCR mixture consists of 12.5 μl of SYBR Premix Ex TAq, 0.5 μl each of forward and reverse primers, 10.5 μl of RNase-free water and 1 μl of template cDNA. The real-time cycle conditions were performed by a reaction system involving 95° C. for 10 seconds, 95° C. for 5 seconds and 60° C. for 30 seconds. The quantification of the MMP-9 gene was normalized by comparison with GAPDH expression.
On the technique in general: Real-time PCR tracks product formation cycle by cycle.

Test [5] has as its system HeLa cells. The test can be described thus: Invasion assay into matrigel, HeLa. It is filed as cell-based, human. Conditions: various concentrations. How it is done:
Cell invasion assay was conducted using a 24-well cell culture BioCoat matrigel invasion chamber (BD Biosciences, Discovery Labware, Bedford, Mass., USA). MDA-MB-231 cells (1×10^3 cells/well) or HeLa cells (1×10^3 cells/well) were suspended in an RPMI1640 or DMEM medium containing 0.1% FBS and added to the upper chamber. An RPMI1640 or DMEM medium containing 5% FBS was added to the lower chamber. Then, the cells were cultured at 37° C. for 22 hours in a 5% CO2 environment. Noninvasive cells remaining on the membrane were wiped off using a cotton swab. Invasion cells were fixed and stained with a Diff-Quik kit. The number of cells invading the membrane was determined in mean±standard deviation from a total of 3 membranes by counting in 10 fields of view per membrane using an optical microscope (200× magnification).

Turning to `CC(=O)Nc1cn(C)c(C(=O)Nc2cc(C(=O)NCCC(=O)Nc3cn(C)c(C(=O)Nc4cc(C(=O)Nc5cc(C(=O)NCCCC(=O)Nc6cn(C)c(C(=O)Nc7cn(C)c(C(=O)Nc8cc(C(=O)NCCC(=O)Nc9cn(C)c(C(=O)Nc%10cc(C(=O)NCCC(=O)NCCCN(C)C)n(C)c%10)n9)n(C)c8)n7)n6)n(C)c5)n(C)c4)n3)n(C)c2)n1` [HMMP9AP1], in test [1], the “expression of MMP-9 protein” value was “remarkably inhibited”. In addition, the “migration of MDA-MB-231 cells” value in test [2] is recorded as “inhibit the migration of MDA-MB-231 cells in a concentration-dependent manner”. In addition, in test [3], the “number of live cells (growth inhibition)” value is on record as “decreased the number of live cells”. In addition, the “decrease of the expression level of MMP-9 mRNA” value in test [4] (0.3 μM) is given as 84%; in test [4] (1 μM), 54%; in test [4] (3 μM), 38%; in test [4] (10 μM), 26%. For the same compound, the “invasion of HeLa cells into matrigel” value in test [5] was “inhibited the invasion activities”.
Consider `CC(=O)Nc1cc(C(=O)Nc2cc(C(=O)NCCC(=O)Nc3cc(C(=O)Nc4cc(C(=O)NCCCC(=O)Nc5cn(C)c(C(=O)Nc6cn(C)c(C(=O)NCCC(=O)Nc7cc(C(=O)Nc8cc(C(=O)NCCC(=O)NCCCN(C)C)n(C)c8)n(C)c7)n6)n5)n(C)c4)n(C)c3)n(C)c2)n(C)c1` [HMMP9NFκβ], for which, in test [1], the “expression of MMP-9 protein” value is on record as “decreased in an HMMP9NFκβ concentration-dependent manner”. Further, the “migration of MDA-MB-231 cells” value in test [2] was “inhibit the migration of MDA-MB-231 cells in a concentration-dependent manner”. Also, the “number of live cells (growth inhibition)” value in test [3] was “decreased the number of live cells in a concentration-dependent manner”. The “decrease of the expression level of MMP-9 mRNA” value in test [4] (0.3 μM) was found to be 86%; in test [4] (1 μM), 68%; in test [4] (3 μM), 40%; in test [4] (10 μM), 28%. The “invasion of HeLa cells into matrigel” value in test [5] is listed as “invasion into matrigel decreases in an HMMP9NFκβ concentration-dependent manner”.
